Structures are written as SMILES.

The values below come from patent publication US7160903B2, “Sulfonylaminocarboxylic acids” (Sanofi-Aventis Deutschland GmbH, priority 1997, dated 2007).

The target in data set [1] is T1, neutrophil collagenase (MMP-8) (Homo sapiens, UniProt P22894).
T1 construct: enzymatic activity of the catalytic domains of human stromelysin and of neutrophil collagenase; made in house
The experiment in a line: Enzymatic activity of the catalytic domain of neutrophil collagenase (fluorogenic substrate). Format: biochemical. The note with it: pH=6.5, 15 min preincubation, fluorescence 328 nm (ex)/393 nm (em), read-out: Neutr. collagenase IC50. The procedure:
(§1) Preparation and determination of the enzymatic activity of the catalytic domains of human stromelysin and of neutrophil collagenase:
(§2) The enzymes stromelysin (MMP-3) and neutrophil collagenase (MMP-8) were prepared according to Ye et al. (Biochemistry; 31 (1992) pages 11231–11235). To measure the enzyme activity or the enzyme inhibitor action, 70 μl of buffer solution and 10 μl of enzyme solution are incubated for 15 min with 10 μl of a 10% strength (v/v) aqueous dimethyl sulfoxide solution, which optionally contains the enzyme inhibitor. After addition of 10 μl of a 10% strength (v/v) aqueous dimethyl sulfoxide solution which contains 1 mmol/L of the substrate, the enzyme reaction is monitored by fluorescence spectroscopy (328 nm (ex)/393 nm(em)). The enzyme activity is shown as the extinction increase/min. The IC50 values listed in Table 2 are determined as those inhibitor concentrations which in each case led to a 50% inhibition of the enzyme.
(§3) The buffer solution contains 0.05% Brij (Sigma, Deisenhofen, Germany) and also 0.1 mol/L Tris/HCl, 0.1 mol/L NaCl, 0.01 mol/L CaCl2 and 0.1 mol/L piperazine-N,N′-bis[2-ethanesulfonic acid] (pH=6.5). The enzyme solution contains 5 μg/ml of one of the enzyme domains prepared according to Ye et al. The substrate solution contains 1 mmol/L of the fluorogenic substrate (7-methoxycoumarin-4-yl)acetyl-Pro-Leu-Gly-Leu-3-(2′,4′-dinitrophenyl)-L-2,3-diaminopropionyl-Ala-Arg-NH2 (Bachem, Heidelberg, Germany).

The target of data set [2] is T2, stromelysin (MMP-3) (Homo sapiens, UniProt P08254).
T2 construct: enzymatic activity of the catalytic domains of human stromelysin and of neutrophil collagenase; made in house
T2 sequence (P08254 100-272 limits assumed): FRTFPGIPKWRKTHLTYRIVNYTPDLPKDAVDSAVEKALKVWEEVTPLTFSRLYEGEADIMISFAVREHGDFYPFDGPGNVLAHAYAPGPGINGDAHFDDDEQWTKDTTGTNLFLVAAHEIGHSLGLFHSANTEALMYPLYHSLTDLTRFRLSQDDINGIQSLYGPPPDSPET
The experiment in a line: Enzymatic activity of the catalytic domain of human stromelysin (fluorogenic substrate). The data set is classed as biochemical. The note with it: pH=6.5, 15 min preincubation, fluorescence 328 nm (ex)/393 nm (em). The procedure: as §1, §2, §3

T1 sequence (P22894 100-262 limits assumed): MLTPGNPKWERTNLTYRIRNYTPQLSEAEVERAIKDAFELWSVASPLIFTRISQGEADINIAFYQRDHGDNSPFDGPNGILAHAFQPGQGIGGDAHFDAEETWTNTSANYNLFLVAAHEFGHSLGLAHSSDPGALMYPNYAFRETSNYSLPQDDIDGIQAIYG

The term melting point denotes the temperature, or range, at which the solid turns liquid. On to `O=C(O)[C@H](CCC(=O)N1CCc2ccccc21)NS(=O)(=O)c1ccc(-c2ccc(N3CCCC3)cc2)cc1` [Example 101], for which the melting point was > 130 °C (dec.). The IC50 is the midpoint of a concentration-inhibition curve. As for `CSCC[C@@H](NS(=O)(=O)c1ccc(-c2ccc(Cl)cc2)cc1)C(=O)O` [Example 10], the IC50 was 10 nM in data set [1] and 90 nM in data set [2]. Take `O=C(O)CCN(CC(=O)O)S(=O)(=O)c1ccc(Oc2ccc(Cl)cc2)cc1` [Example 45]: the melting point lay within 169 to 171 °C.

For the molecule `O=C(O)[C@H](Cc1c[nH]cn1)NS(=O)(=O)c1ccc(Oc2ccccc2)cc1` [Example 30], the melting point was 183 to 185 °C. Take `O=C(O)C(Cc1cccnc1)NS(=O)(=O)c1ccc(-c2ccc(Cl)cc2)cc1` (racemic) [Example 88]: the IC50 was 7 nM in data set [1] and 100 nM in data set [2].

`CN(C)c1ccc(-c2ccc(S(=O)(=O)NC(CCC(=O)Nc3ccccc3)C(=O)O)cc2)cc1` (racemic) [Example 48] registered a melting point of 212 to 214 °C. On the same count and under the same terms, to `O=C(CCC(NS(=O)(=O)c1ccc(-c2ccccc2)cc1)C(=O)O)Nc1ccccc1` (racemic) [Example 47] belongs 227 to 230 °C. Turning to `O=C(O)[C@H](CSCc1ccccc1)NS(=O)(=O)c1ccc(-c2ccc(Cl)cc2)cc1` [Example 32], the figures for the IC50 in data set [1] and in data set [2] were 40 nM and 200 nM, respectively. On to `O=C(O)[C@H](CCC(=O)N1CCc2ccccc21)NS(=O)(=O)c1ccc(-c2ccccc2)cc1` [Example 100], for which the melting point lay in the range of 182.5 to 183.5 °C. In addition, the half-inhibitory concentration (IC50) in data set [1] was 20 nM. For `NC(=O)CC[C@@H](NS(=O)(=O)c1ccc(-c2ccc(Cl)cc2)cc1)C(=O)O` [Example 51], the IC50 in data set [1] came out at 5 nM; in data set [2], 50 nM. In turn, `CSCC[C@@H](NS(=O)(=O)c1ccc(-c2ccon2)s1)C(=O)O` [Example 13] registered a melting point of 70 to 76 °C. With `O=C(c1ccccc1)c1ccc(C[C@@H](NS(=O)(=O)c2ccc(-c3ccc(Cl)cc3)cc2)C(=O)O)cc1` [Example 23], the IC50 in data set [1] stood at 600 nM; in data set [2], 1000 nM. The corresponding values for `O=C(O)[C@@H](Cc1c[nH]c2ccccc12)NS(=O)(=O)c1ccc(-c2ccc(Cl)cc2)cc1` [Example 29, (R)-N-(4-Chlorobiphenylsulfonyl)tryptophan] are 9 nM and 80 nM. As to `CN(C)c1ccc(-c2ccc(S(=O)(=O)N[C@@H](CCC(N)=O)C(=O)O)cc2)cc1` [Example 49], the melting point was in the range of 213 to 215 °C. In the case of `O=C(C[C@H](NS(=O)(=O)c1ccc(-c2ccc(Cl)cc2)cc1)C(=O)O)OCc1ccccc1` [Example 41], the IC50 in data set [1] worked out at 30 nM; in data set [2] it was 200 nM.

In the case of `CP(=O)(O)CC[C@H](NS(=O)(=O)c1ccc(-c2ccc(Cl)cc2)cc1)C(=O)O` [Example 104], the IC50 came to 5 nM in data set [1] and 40 nM in data set [2].

As for `CS(=O)(=O)CC[C@@H](NS(=O)(=O)c1ccc(-c2ccc(Cl)cc2)cc1)C(=O)O` [Example 16], the IC50 was 7 nM in data set [1] and 70 nM in data set [2]. As to `O=C(O)C(NS(=O)(=O)c1ccc(-c2ccc(Cl)cc2)cc1)C(O)c1cccs1` (stereo not shown) [Example 36], the IC50 was 10 nM in data set [1] and 200 nM in data set [2]. The molecule `O=C(O)[C@@H]1CN1S(=O)(=O)c1ccc(-c2ccccc2)cc1` (stereo partly shown) [Example 64] gave a melting point of 138 to 139 °C.

The molecule `COc1ccc(CC(NS(=O)(=O)c2ccc(-c3ccc(N(C)C)cc3)cc2)C(=O)O)cc1OC` (racemic) [Example 24] came in with a melting point of 230 °C.

Turning to `CN(CC(=O)O)S(=O)(=O)c1ccc(Oc2ccc(Cl)cc2)cc1` [Example 4], the melting point was in the range of 128 to 130 °C. Consider `NC(=O)CC[C@@H](NS(=O)(=O)c1ccc(-c2ccccc2)cc1)C(=O)O` [Example 72], for which the IC50 amounted to 20 nM in data set [1] and 600 nM in data set [2].

As to `C[S+]([O-])CC[C@@H](NS(=O)(=O)c1ccc(-c2ccc(Cl)cc2)cc1)C(=O)O` (stereo partly shown) [Example 15], the IC50 in data set [1] amounted to 10 nM; in data set [2], 100 nM. For `O=C(O)[C@@H](CCc1ccccc1)NS(=O)(=O)c1ccc(-c2ccc(Cl)cc2)cc1` [Example 25], in that order: 40 nM and 200 nM. For `O=C(O)C(CSC1=NCCS1)NS(=O)(=O)c1ccc(-c2ccc(Cl)cc2)cc1` (racemic) [Example 19], in that order: 50 nM and 500 nM. With `O=C(O)C(NS(=O)(=O)c1ccc(-c2ccc(Cl)cc2)cc1)C(O)c1ccccc1` (stereo not shown) [Example 34], the IC50 in data set [1] was found to be 20 nM; in data set [2], 200 nM. Regarding `NC(=O)C[C@@H](NS(=O)(=O)c1ccc(-c2ccc(Cl)cc2)cc1)C(=O)O` [Example 44], the IC50 in data set [1] was 10 nM; in data set [2], 90 nM.

For the molecule `O=C(O)C(CCc1c[nH]c2ccccc12)NS(=O)(=O)c1ccc(-c2ccc(Cl)cc2)cc1` (racemic) [Example 105], the IC50 stood at 10 nM in data set [1] and 30 nM in data set [2]. For `O=C(O)C(NS(=O)(=O)c1ccc(-c2ccc(Cl)cc2)cc1)c1ccsc1` (racemic) [Example 26], in that order: 40 nM and 400 nM. The corresponding values for `O=C(O)[C@@H](Cc1csc2ccccc12)NS(=O)(=O)c1ccc(-c2ccc(Cl)cc2)cc1` [Example 28] are 60 nM and 300 nM.

On to `O=C(O)C[C@H](NS(=O)(=O)c1ccc(-c2ccc(Cl)cc2)cc1)C(=O)OCc1ccccc1` [Example 42], for which the IC50 turned out to be 30 nM in data set [1] and 400 nM in data set [2].

Regarding `O=C(O)C[C@H](NS(=O)(=O)c1ccc(-c2ccccc2)cc1)C(=O)O` [Example 37], the melting point amounted to 186.7 °C. Same read-out and setting: then `O=C(CC[C@H](NS(=O)(=O)c1ccc(-c2ccccc2)cc1)C(=O)O)Nc1ccc(C(=O)O)cc1` [Example 50], with 266 °C. With `O=C(O)[C@@H](CO)NS(=O)(=O)c1ccc(-c2ccc(Cl)cc2)cc1` [Example 7], the results for the IC50 in data set [1] and in data set [2] were 40 nM and 200 nM, respectively. With `O=C(O)[C@H]1C[C@@H](O)CN1S(=O)(=O)c1ccc(-c2ccc(Cl)cc2)cc1` [Example 2, (2R)-1-(4-Chlorobiphenylsulfonyl)-4-cis-hydroxyproline], the results for the IC50 in data set [1] and in data set [2] were 90 nM and 100 nM, respectively. On to `CSCC[C@@H](NS(=O)(=O)c1ccc(-c2ccccn2)s1)C(=O)O` [Example 12], for which the melting point lay in the range of 115 to 125 °C. For the molecule `NNC(=O)CC[C@H](NS(=O)(=O)c1ccc(-c2ccccc2)cc1)C(=O)O` [Example 59], the melting point lay within 205 to 207 °C. For the molecule `C=CC(NS(=O)(=O)c1ccc(-c2ccc(Cl)cc2)cc1)C(=O)O` (racemic) [Example 6], the figures for the IC50 in data set [1] and in data set [2] were 20 nM and 200 nM, respectively. As to `CS(=O)(=O)CC[C@H](NS(=O)(=O)c1ccc(-c2ccc(Cl)cc2)cc1)C(=O)O` [Example 17], the IC50 in data set [1] was 20 nM; in data set [2], 100 nM. With `CN(C)c1ccc(-c2ccc(S(=O)(=O)N[C@H](CCC(=O)O)C(=O)O)cc2)cc1` [Example 46], the melting point was found to be 165 °C. Same read-out and setting: to `O=C(O)C[C@@H](C(=O)O)N(Cc1ccncc1)S(=O)(=O)c1ccc(-c2ccccc2)cc1` [Example 43] belongs 105 °C; to `O=C(O)C[C@@H](NS(=O)(=O)c1ccc(-c2ccccc2)cc1)C(=O)O` [Example 38], more than 55 °C.
